This is an account of results in patent US12384776B2, “Compounds and uses thereof” (Foghorn Therapeutics Inc., priority 2019, dated 2025).

This assay addresses Nanoluciferase-BRD9 fusion protein (3×FLAG-NLuc-BRD9) in SYO-1 cells (Homo sapiens (Human), UniProt Q9H8M2). In words: SYO1 BRD9 NanoLuc degradation assay. The format is cell-based. The method, boiled down: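 Degradation read as loss of NLuc signal after 6 h compound exposure (1 μM top final, 3-fold steps, 10 points, duplicates) in SYO-1 cells stably carrying 3×FLAG-NLuc-BRD9. Signal normalised between DMSO-treated cells and cells given 1 μM of a known BRD9 degrader.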

[1] abbreviates: SYO-1 cells expressing 3×FLAG-NLuc-BRD9, 6 hours incubation, top dose 1 μM.

Sequence of Nanoluciferase-BRD9 fusion protein (3×FLAG-NLuc-BRD9) in SYO-1 cells (Q9H8M2 whole entry, the tested form may be a part): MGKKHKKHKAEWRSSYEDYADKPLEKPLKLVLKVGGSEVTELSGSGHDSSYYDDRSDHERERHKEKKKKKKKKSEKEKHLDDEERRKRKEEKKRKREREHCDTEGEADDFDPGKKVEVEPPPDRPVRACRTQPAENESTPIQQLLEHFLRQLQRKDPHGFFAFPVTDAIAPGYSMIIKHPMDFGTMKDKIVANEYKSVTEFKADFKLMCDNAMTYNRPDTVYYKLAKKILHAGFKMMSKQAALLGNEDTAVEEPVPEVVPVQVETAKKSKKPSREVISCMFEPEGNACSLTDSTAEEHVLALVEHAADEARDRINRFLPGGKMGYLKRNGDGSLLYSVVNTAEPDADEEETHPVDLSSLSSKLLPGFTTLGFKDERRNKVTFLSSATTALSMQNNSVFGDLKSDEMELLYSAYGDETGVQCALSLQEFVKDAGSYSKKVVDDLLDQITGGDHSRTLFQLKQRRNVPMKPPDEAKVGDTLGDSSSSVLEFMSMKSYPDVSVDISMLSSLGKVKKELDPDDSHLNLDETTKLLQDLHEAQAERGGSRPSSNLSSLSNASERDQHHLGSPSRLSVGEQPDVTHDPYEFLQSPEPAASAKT

What is called IC50 is the concentration that gives 50% inhibition. A high value points to weaker potency in that assay. For the compound `CNC(=O)N1CCc2c(-c3cc(OC)c(CN4CC(S(=O)(=O)NCCOc5ccc6c(c5)C(=O)N(C5CCC(=O)NC5=O)C6=O)C4)c(OC)c3)cn(C)c(=O)c2C1` (centres unmarked) [Compound D279], the IC50 under setting [1] lay in the range of 100 to 1000 nM.
Under “SYO-1 cells, 6 hours, Table 6C”, `COc1cc(-c2cn(C)c(=O)c3c2CCC3)cc(OC)c1CN1CC(C#Cc2ccc3c(c2)C(=O)N(C2CCC(=O)NC2=O)C3)C1` (centres unmarked) [Compound D365] yielded an IC50 of less than 10 nM.
Consider `COc1cc(-c2cn(C)c(=O)c3c2CCN(C(=O)NCCOCCOCCNc2cccc4nc(C)n(C5CCC(=O)NC5=O)c(=O)c24)C3)cc(OC)c1CN(C)C` (centres unmarked) [Compound D292], for which the IC50 under setting [1] lay within 100 to 1000 nM.
Turning to `CNC(=O)N1CCc2c(-c3cc(OC)c(C(C)N4CCC(CN5CCC6(CC5)CC(Oc5ccc7c(c5)C(=O)N(C5CCC(=O)NC5=O)C7=O)C6)CC4)c(OC)c3)cn(C)c(=O)c2C1` (centres unmarked) [Compound D106], the IC50 under setting [1] is less than 10 nM.
Under setting [1], `COc1cc(-c2cn(C)c(=O)c3c2OCCN3)cc(OC)c1CN1CC(CN2CCC3(CC2)CN(c2ccc4c(c2)C(=O)N(C2CCC(=O)NC2=O)C4)C3)C1` (centres unmarked) [Compound D66] registered an IC50 of less than 10 nM.
`CNC(=O)N1CCc2c(-c3cc(OC)c(CN4CCC(CCN5CCN(c6cc7c(cc6F)C(=O)N(C6CCC(=O)NC6=O)C7=O)CC5)CC4)c(OC)c3)cn(C)c(=O)c2C1` (centres unmarked) [Compound D88] yielded a half-maximal inhibitory concentration (IC50) under setting [1] of less than 10 nM.
Same read-out and setting: the value for `COc1cc(-c2cn(C)c(=O)c3c2CCN(C(=O)NC2CCC4CN(CCOc5ccc6c(c5)C(=O)N(C5CCC(=O)NC5=O)C6=O)CC42)C3)cc(OC)c1CN(C)C` (centres unmarked) [Compound D271] was 10 to 100 nM; that for `CNC(=O)N1CCc2c(-c3cc(OC)c(CN4CCC(CCN5CCN(c6ccc7c(c6)C(=O)N(C6CCC(=O)N(COC(=O)OC(C)C)C6=O)C7=O)CC5)CC4)c(OC)c3)cn(C)c(=O)c2C1` (centres unmarked) [Compound D82] was less than 10 nM.
`COc1cc(-c2cn(C)c(=O)c3c2CCN(C(=O)NCC(F)F)C3)cc(OC)c1CN1CCN(CCC2CCN(c3ccc4c(c3)CN(C3CCC(=O)NC3=O)C4=O)CC2)CC1(C)C` (centres unmarked) [Compound D320]: the IC50 (SYO-1 cells, 6 hours, Table 6C) is less than 10 nM.
As for `CNC(=O)N1CCc2c(-c3cc(OC)c(CN4CCC(CCN5CCN(c6ccc7c(c6)C(=O)N(C6CCC(=O)NC6=O)C7=O)CC5)C(F)(F)C4)c(OC)c3)cn(C)c(=O)c2C1` (centres unmarked) [Compound D155], the IC50 under setting [1] is less than 10 nM.
Compound `COc1cc(-c2cn(C)c(=O)c3c2CCN(C(=O)NCC2CC4(CCN(CCOc5ccc6c(c5)C(=O)N(C5CCC(=O)NC5=O)C6=O)CC4)O2)C3)cc(OC)c1CN(C)C` (centres unmarked) [Compound D213] registered an IC50 under setting [1] of 100 to 1000 nM.
`[2H]C([2H])([2H])n1cc(-c2cc(OC)c(CN3CCN(CCC4CCN(c5ccc6c(c5)C(=O)N(C5CCC(=O)NC5=O)C6=O)CC4)CC3)c(OC)c2)c2c(c1=O)CN(C(=O)NCC(F)F)CC2` (centres unmarked) [Compound D328]: the IC50 (SYO-1 cells, 6 hours, Table 6C) was not below 1000 nM.
As for `CNC(=O)N1CCc2c(-c3cc(OC)c(CN4CCC(CCN5CC6CC5CN6c5ccc6c(c5)C(=O)N(C5CCC(=O)NC5=O)C6=O)CC4)c(OC)c3)cn(C)c(=O)c2C1` (centres unmarked) [Compound D172], under setting [1], the IC50 is less than 10 nM.
`CNC(=O)N1CCc2c(-c3cc(OC)c(CN4CCN(CCC5CCN(c6ccc7c(c6)C(=O)N(C6CCC(=O)NC6=O)C7)CC5(F)F)CC4)c(OC)c3)cn(C)c(=O)c2C1` (centres unmarked) [Compound D346] registered an IC50 (SYO-1 cells, 6 hours, Table 6C) of less than 10 nM.
In the case of `COc1cc(-c2cn(C)c(=O)c3c2CCN(C(=O)NC2CCC4CN(CCCOc5ccc6c(c5)C(=O)N(C5CCC(=O)NC5=O)C6=O)CC42)C3)cc(OC)c1CN(C)C` (centres unmarked) [Compound D244], the IC50 under setting [1] was in the range of 100 to 1000 nM.
Still for that read-out and setting: the value for `CNC(=O)N1CCc2c(-c3cc(OC)c(CN(C)C45CC(C(=O)NCCCCCOc6cccc7c6C(=O)N(C6CCC(=O)NC6=O)C7=O)(C4)C5)c(OC)c3)cn(C)c(=O)c2C1` (centres unmarked) [Compound D283] was less than 10 nM.
The same measure, in the same setting: the value for `COc1cc(-c2cn(C)c(=O)c3c2CCN(C(=O)NCCCN2CC4(CCN(c5ccc6c(c5)C(=O)N(C5CCC(=O)NC5=O)C6=O)C4)C2)C3)cc(OC)c1CN(C)C` (centres unmarked) [Compound D210] was 10 to 100 nM; that for `[2H]C([2H])([2H])NC(=O)N1CCc2c(-c3cc(OC)c(CN4CCN(CCC5CCN(c6ccc7c(c6)C(=O)N(C6CCC(=O)NC6=O)C7=O)CC5)CC4)c(OC)c3)cn(C)c(=O)c2C1` (centres unmarked) [Compound D48] was less than 10 nM.
`COc1cc(-c2cn(C)c(=O)c3c2COC3)cc(OC)c1CN1CCN(c2ccc3c(c2)C(=O)N(C2CCC(=O)NC2=O)C3=O)CC1` (centres unmarked) [Compound D373] came in with an IC50 (SYO-1 cells, 6 hours, Table 6C) of less than 10 nM.
Under “SYO-1 cells, 6 hours, Table 6C”, `COc1cc(-c2cn(C)c(=O)c3c2COC3)cc(OC)c1CN1CC(C#Cc2ccc3c(c2)CN(C2CCC(=O)NC2=O)C3=O)C1` (centres unmarked) [Compound D368] yielded an IC50 of less than 10 nM.
Compound `COc1cc(-c2cn(C)c(=O)c3c2CCN(C(=O)NC2C[C@@H]4CN(CCCOc5ccc6c(c5)C(=O)N(C5CCC(=O)NC5=O)C6=O)C[C@H]24)C3)cc(OC)c1CN(C)C` (some centres unmarked) [Compound D248] returned an IC50 under setting [1] not below 1000 nM.
Still for that read-out and setting: the value for `COc1cc(-c2cn(C)c(=O)c3c2CCN(C(=O)NCC2CC4(CCN(c5ccc6c(c5)C(=O)N(C5CCC(=O)NC5=O)C6=O)CC4)C2)C3)cc(OC)c1CN(C)C` (centres unmarked) [Compound D110] was less than 10 nM.
`COc1cc(-c2cn(C)c(=O)c3c2CN(C(=O)N(C)C)CC3)cc(OC)c1CN(C)CCOCCN1CCN(c2ccc3c(c2)C(=O)N(C2CCC(=O)NC2=O)C3=O)CC1` (centres unmarked) [Compound D298] showed an IC50 under setting [1] not below 1000 nM.
For the compound `COc1cc(-c2cn(C)c(=O)c3c2CCN(C(=O)NC2CC2)C3)cc(OC)c1CN1CCC(CCN2CCN(c3ccc4c(c3)C(=O)N(C3CCC(=O)NC3=O)C4=O)CC2)CC1` (centres unmarked) [Compound D81], the IC50 under setting [1] was less than 10 nM.
Still for that read-out and setting: the value for `CNC(=O)N1CCc2c(-c3cc(OC)c(CN4CCN(CCN5CCC(c6ccc7c(c6)C(=O)N(C6CCC(=O)NC6=O)C7)CC5)CC4)c(OC)c3)cn(C)c(=O)c2C1` (centres unmarked) [Compound D71] was less than 10 nM.
Turning to `CNC(=O)N1CCc2c(-c3cc(OC)c(CN4CCC(CN5CCC6(CC5)CC(Oc5ccc7c(c5)C(=O)N(C5CCC(=O)NC5=O)C7=O)C6)CC4)c(OC)c3)cn(CF)c(=O)c2C1` (centres unmarked) [Compound D347], the IC50 (SYO-1 cells, 6 hours, Table 6C) was less than 10 nM.
`COc1cc(-c2cn(C)c(=O)c3c2CCN(C(=O)NC2CC4(CCN(CCCCN5CCN(c6ccc7c(c6)C(=O)N(C6CCC(=O)NC6=O)C7=O)CC5)CC4)CO2)C3)cc(OC)c1CN(C)C` (centres unmarked) [Compound D217] came in with an IC50 under setting [1] not below 1000 nM.
In turn, `COc1cc(-c2cn(C)c(=O)c3c2CCN(C(=O)NCCN2CC4(CCN(c5ccc6c(c5)C(=O)N(C5CCC(=O)NC5=O)C6=O)C4)C2)C3)cc(OC)c1CN(C)C` (centres unmarked) [Compound D211] yielded a 50% inhibitory concentration (IC50) under setting [1] of 100 to 1000 nM.
For the setting “SYO-1 cells, 6 hours, Table 6C”, `COc1cc(-c2cn(C)c(=O)c3c2CCCN3)cc(OC)c1CN1CCC2(CC1)CN(c1ccc3c(c1)C(=O)N(C1CCC(=O)NC1=O)C3)C2` (centres unmarked) [Compound D361] had an IC50 of less than 10 nM.
`CNC(=O)N1CCc2c(-c3cc(OC)c(CN4CCC(CCN5CCN(c6cc7c(c(OC)c6)C(=O)N(C6CCC(=O)NC6=O)C7)CC5)CC4)c(OC)c3)cn(C)c(=O)c2C1` (centres unmarked) [Compound D50] gave an IC50 under setting [1] of 10 to 100 nM.
On the same count and under the same terms, the value for `COc1cc(-c2cn(C)c(=O)c3c2CCN(C(=O)NCCN2CCC(OC4CCN(c5ccc6c(c5)C(=O)N(C5CCC(=O)NC5=O)C6=O)CC4)C2)C3)cc(OC)c1CN(C)C` (centres unmarked) [Compound D204] was 100 to 1000 nM.
For the compound `COc1cc(-c2cn(C)c(=O)c3c2CCN(C(=O)NCC(F)F)C3)cc(OC)c1CN1CCN(CCC2CCN(c3ccc4c(c3)CN(C3CCC(=O)NC3=O)C4=O)CC2)CC12CCC2` (centres unmarked) [Compound D322], under “SYO-1 cells, 6 hours, Table 6C”, the IC50 is less than 10 nM.
In turn, `CNC(=O)N1CCc2c(-c3cc(OC)c(CN4CCC(CCN5CCC(c6ccc7c(c6)C(=O)N(C6CCC(=O)NC6=O)C7=O)CC5)CC4)c(OC)c3)cn(C)c(=O)c2C1` (centres unmarked) [Compound D113] yielded an IC50 under setting [1] of less than 10 nM.
On the same count and under the same terms, the value for `CNC(=O)N1CCc2c(-c3cc(OC)c(CN4CCC(CCN5CCN(c6ccc7c(c6)C(=O)N(C6CCC(=O)NC6=O)C7=O)CC5)CC4)c(OC)c3)cn(C3CC3)c(=O)c2C1` (centres unmarked) [Compound D118] was less than 10 nM.
Compound `COc1cc(-c2cn(C)c(=O)c3c2CCN(C(=O)NC2CC4CC2CN4CCCCN2CCN(c4ccc5c(c4)C(=O)N(C4CCC(=O)NC4=O)C5=O)CC2)C3)cc(OC)c1CN(C)C` (centres unmarked) [Compound D243] had an IC50 under setting [1] not below 1000 nM.
Regarding `CNC(=O)N1CCc2c(-c3cc(OC)c(CN4CC(C(C)N5CCC6(CC5)CN(c5ccc7c(c5)CN(C5CCC(=O)NC5=O)C7)C6)C4)c(OC)c3)cn(C)c(=O)c2C1` (centres unmarked) [Compound D51], the IC50 under setting [1] was less than 10 nM.
On the same count and under the same terms, the value for `CNC(=O)N1CCc2c(-c3cc(OC)c(CN4CCN(CCC5CCN(c6ccc7c(c6)C(=O)N(C6CCC(=O)NC6=O)C7=O)CC5)CC4C)c(OC)c3)cn(C)c(=O)c2C1` (centres unmarked) [Compound D99] was less than 10 nM; that for `CNC(=O)N1CCc2c(-c3cc(OC)c(CN4CCN(c5nn(C6CCC(=O)NC6=O)c(=O)n5C)CC4)c(OC)c3)cn(C)c(=O)c2C1` (centres unmarked) [Compound D62] was not below 1000 nM.
For `CNC(=O)N1CCc2c(-c3cc(OC)c(CN4CC5CC4CC5CCN4CCN(c5ccc6c(c5)C(=O)N(C5CCC(=O)NC5=O)C6=O)CC4)c(OC)c3)cn(C)c(=O)c2C1` (centres unmarked) [Compound D138], under setting [1], the IC50 is less than 10 nM.
Consider `COc1cc(-c2cn(C)c(=O)c3c2CCC3)cc(OC)c1CN1CCC(C#Cc2ccc3c(c2)C(=O)N(C2CCC(=O)NC2=O)C3)CC1` (centres unmarked) [Compound D371], for which the IC50 (SYO-1 cells, 6 hours, Table 6C) is less than 10 nM.
The compound `COc1cc(-c2cn(C)c(=O)c3c2CCCC3)cc(OC)c1CN1CC(CN2CCC3(CC2)CN(c2ccc4c(c2)C(=O)N(C2CCC(=O)NC2=O)C4)C3)C1` (centres unmarked) [Compound D301] yielded an IC50 under setting [1] of less than 10 nM.
Still for that read-out and setting: the value for `CNC(=O)N1CCc2c(-c3cc(OC)c(CN4CC(C(=O)N5CC6(CCN(c7ccc8c(c7)C(=O)N(C7CCC(=O)NC7=O)C8=O)C6)C5)C4)c(OC)c3)cn(C)c(=O)c2C1` (centres unmarked) [Compound D144] was 10 to 100 nM; that for `CNC(=O)N1Cc2c(-c3cc(OC)c(CN4CCC(CCN5CCN(c6ccc7c(c6)C(=O)N(C6CCC(=O)NC6=O)C7=O)CC5)CC4)c(OC)c3)cn(C)c(=O)c2C1` (centres unmarked) [Compound D299] was less than 10 nM; that for `CNC(=S)N1CCc2c(-c3cc(OC)c(CN4CCC(CCN5CCN(c6ccc7c(c6)C(=O)N(C6CCC(=O)NC6=O)C7=O)CC5)CC4)c(OC)c3)cn(C)c(=O)c2C1` (centres unmarked) [Compound D63] was less than 10 nM.
